# In EP0965591A1, “(s)-3-methyl-1-(2-piperidino-phenyl)-1-butylamine, its salts, synthesis and use in the long term therapy of diabetes mellitus” (Boehringer Ingelheim Pharma KG, priority 1991, dated 1993):
# Assays:
# weiblichen Ratten = test: Blood-glucose-lowering effect in female rats; type: in vivo, Ratte; conditions: for blutzuckersenkende Wirkung: female rats, comparison of the two enantiomers
# Text: Die beiden Enantiomeren dieser Verbindung, nämlich (S)(+)-2-Ethoxy-4-[N-[1-(2-piperidino-phenyl)-3-methyl-1-butyl]-aminocarbonylmethyl]benzoesäure (Code-Nr.: AG-EE 623 ZD) und (R) (-)-2-Ethoxy-4-[N-[1-(2-piperidino-phenyl)-3-methyl-1-butyl]aminocarbonylmethyl]benzoesäure (Code-Nr.: AG-EE 624 ZD), wurden auf ihre blutzuckersenkende Wirkung an weiblichen Ratten geprüft.
# [1] = parameters: species or system Menschen; conditions: in vivo
# Procedure: Dies wirkt sich z.B. bei Applikation einer Tablette mit 2 mg AG-EE 388 ZW bzw. einer Tablette mit 1 mg AG-EE 623 ZW an 12 bzw. 6 Probanden so aus, daß die Maximal-Konzentrationen 84 ± 25 bzw. 28 ± 18 ng/ml sowie die Konzentrationen nach 4 Stunden 19 ± 8 bzw. 0,7 ± 1,0 ng/ml, nach 5 Stunden 13 ± 6 bzw. 0,3 ± 0,7 ng/ml und nach 6 Stunden 10 ± 6 bzw. 0,3 ± 0,7 ng/ml betragen.
# Menschen = test: Blood-glucose-lowering effect in human studies; type: in vivo
# Text: Auf Grund dieser Ergebnisse an der Ratte erscheint für den Menschen die ausschließliche Verwendung von AG-EE 623 ZW geboten, wodurch die Dosis im Vergleich zur AG-EE 388 ZW-Dosis um 50 % reduziert werden kann. […] Darüber hinaus wurde jedoch bei den Human-Studien gefunden, daß AG-EE 623 ZW überraschende pharmakokinetische Eigenschaften aufweist, die auf Grund der AG-EE 388 ZW-Daten nicht vorhersehbar waren. AG-EE 623 ZW zeigt somit überraschende therapeutische Vorteile gegenüber dem Racemat AG-EE 388 ZW.
# Ratten = test: Acute toxicity after a single oral dose in rats; type: in vivo; conditions: single 1000 mg/kg p.o., suspension in 1% Methylcellulose; 5 male and 5 female rats; 14 days observation
SMILES,blutzuckersenkende Wirkung (weiblichen Ratten),Plasma-Konzentrationen nach Racemat-Gabe [1],Wirkungsdauer (Menschen),"Dauer der Wirkung (weiblichen Ratten; rat, blood-glucose-lowering effect)",Elimination [1],Plasmaspiegel in Relation zur erzielten Blutzuckersenkung [1],verstorbene Tiere (Ratten)
"CCOc1cc(CC(=O)N[C@H](CC(C)C)c2ccccc2N2CCCCC2)ccc1C(=O)O [AG-EE 624 ZW, (R) (-)-2-Ethoxy-4-[N-[1-(2-piperidino-phenyl)-3-methyl-1-butyl]aminocarbonylmethyl]benzoesäure, reference compound]",das unwirksame Enantiomere,in unerwartet höheren Maximal- und Dauer-Spiegeln anwesend,–,–,–,–,–
"CCOc1cc(CC(=O)N[C@@H](CC(C)C)c2ccccc2N2CCCCC2)ccc1C(=O)O [AG-EE 623 ZW, (S)(+)-2-Ethoxy-4-[N-[1-(2-piperidino-phenyl)-3-methyl-1-butyl]-aminocarbonylmethyl]benzoesäure]",das wirksame Enantiomere,–,relativ lange Wirkungsdauer,> 6 Stunden,"wesentlich schneller als das unwirksame Enantiomere, AG-EE 624 ZW, eliminiert",wesentlich niedrigere Plasmaspiegel,kein Tier
